Experimental data from US4898729A, “Treatment of hypertension, compounds and compositions for antihypertension and diuresis” (priority 1983, dated 1990).
Read-outs that look alike come from different tables or passages of the source.

Experiments:
[1] = cited from earlier work; for Approx. Natriuretic Activity: comparison with chlorothiazide having a value of 1; for Potency as diuretic and natriuretic agent relative to chlorothiazide: chlorothiazide being one
[2] = cited from earlier work; for Range diuretic dose: Example 1 table
plasma proteins = conditions: cited from earlier work
[3] = Clinical antihypertensive action dissociated from diuresis; type: in vivo, humans
Method: Such dosage was preferably administered at hourly intervals over a period of from 4 to 8 hours to hypertensive patients.

[4] = in vivo; cited from earlier work
carbonic anhydrase = conditions: cited from earlier work

Compound | Approx. Natriuretic Activity [1] | Range diuretic dose [2] | Daily Diuretic Dose (average minimum diuretic dose) [2] | Binding to plasma proteins (plasma proteins) | further results
NS(=O)(=O)c1cc2c(cc1Cl)NC(C(Cl)Cl)NS2(=O)=O (centres unmarked) [Trichlormethiazide] | 200 | 4 to 8 mg | 8 mg | proportionately high binding to plasma proteins | –
amiloride-hydrochlorothiazide salt | – | – | – | – | Diuretic response at the antihypertensive daily dose ([3]; at the daily dose of b165): without diuresis; Daily dose to achieve an antihypertensive effect ([3]; dose of active ingredients per day): about 50 mg
NS(=O)(=O)c1cc2c(cc1Cl)NC(CC1CCCC1)NS2(=O)=O (centres unmarked) [Cyclopenthiazide] | 1000 | 1 to 6 mg | 2 mg | proportionately high binding to plasma proteins | Potency as diuretic and natriuretic agent relative to chlorothiazide [1]: thousand times more potent; Potency as diuretic and natriuretic agent relative to chlorothiazide ([1]; listed as cyclopenthiazide): a thousand; Daily Diuretic Dose (average minimum diuretic dose) ([2]; listed as cyclopenthiazide): about 2 mg
NS(=O)(=O)c1cc2c(cc1C(F)(F)F)N=CNS2(=O)=O [Flumethiazide] | 1 | 50 to 1000 mg | 200 mg | – | –
NS(=O)(=O)c1cc2c(cc1Cl)NC(C1CC3C=CC1C3)NS2(=O)=O (centres unmarked) [Cyclothiazide] | 500 | 1 to 6 mg | 2 mg | proportionately high binding to plasma proteins | Daily Diuretic Dose (average minimum diuretic dose) ([2]; listed as cyclothiazide): about 2 mg
NS(=O)(=O)c1cc2c(cc1Cl)N=C(CSCc1ccccc1)NS2(=O)=O [Benzthiazide] | 10 | 25 to 50 mg | 200 mg | – | Clinical alkalinization of urine [4]: does not cause an appreciable clinical alkalinization of urine; Carbonic anhydrase inhibition, in words (carbonic anhydrase): relatively potent carbonic anhydrase inhibitor
NS(=O)(=O)c1cc2c(cc1Cl)NCNS2(=O)=O [Hydrochlorothiazide] | 10 | 25 to 100 mg | 200 mg | – | –
CN1C(CSCC(F)(F)F)Nc2cc(Cl)c(S(N)(=O)=O)cc2S1(=O)=O (centres unmarked) [Polythiazide] | – | – | – | proportionately high binding to plasma proteins | –
CN1C(CCl)Nc2cc(Cl)c(S(N)(=O)=O)cc2S1(=O)=O (centres unmarked) [Methyclothiazide] | 100 | 5 to 10 mg | 10 mg | proportionately high binding to plasma proteins | –
NS(=O)(=O)c1cc2c(cc1C(F)(F)F)NC(Cc1ccccc1)NS2(=O)=O (centres unmarked) [Bendroflumethiazide] | 100 | 2 to 5 mg | 20 mg | proportionately high binding to plasma proteins | –
